The source made the active and inactive calls. The calls are words filed in the database; no cut-off is given here.
How the values were obtained:
PC-12 = assay: Cytoprotective activity against corticosterone-induced apoptosis in rat PC12 cells incubated for 24 hrs by MTS assay; assay type: functional, cell-based
Staphylococcus aureus = assay: Antibacterial activity against Staphylococcus aureus assessed as inhibition of microbial growth incubated for 12 hrs by microdilution method; assay type: functional, organism-based
Salmonella typhi = assay: Antibacterial activity against Salmonella typhi assessed as inhibition of microbial growth incubated for 12 hrs by microdilution method; assay type: functional, organism-based; conditions: Salmonella enterica subsp. enterica serovar Typhi
Gaeumannomyces graminis = assay: Antifungal activity against Gaeumannomyces graminis incubated for 48 hrs; assay type: functional, organism-based
Verticillium = assay: Antifungal activity against Verticillium cinnabarinum incubated for 48 hrs; assay type: functional

In the case of `COc1cc(O)c2c(c1)[C@@]13O[C@]4(C)C[C@@](O)(C(=O)C[C@@]1(C)O4)[C@H]3OC2=O`, the Activity (PC-12) was “Active”, the Activity (Staphylococcus aureus) was “inactive” and the Activity (Salmonella typhi) was “inactive”. The Activity (Gaeumannomyces graminis) was “inactive” and the Activity (Verticillium) was “inactive”.
In the case of `COc1cc(O)c2c(c1)[C@]13O[C@@]4(C)C[C@](O)(C(=O)C[C@]1(C)O4)[C@@H]3OC2=O`, the Activity (PC-12) was “Active”, the Activity (Staphylococcus aureus) was “inactive” and the Activity (Salmonella typhi) was “inactive”. For the same compound, the Activity (Gaeumannomyces graminis) was “inactive” and the Activity (Verticillium) was “inactive”.

— ChEMBL document CHEMBL4422688, “(+)- and (-)-Alternarilactone A: Enantiomers with a Diepoxy-Cage-like Scaffold from an Endophytic Alternaria sp” (J Nat Prod, 2019)
